Laboratory results reported in patent publication US20180147134A1, “ANTI-CELL SENESCENCE COSMETIC COMPOSITION, USE OF CASEARIA SYLVESTRIS AND/OR HIMENAEA COURBARIL, METHOD OF PREVENTING CELL SENESCENCE AND A METHOD FOR MODULATING THE EXPRESSION OF B-GALACTOSIDASE, P16, P21 AND/OR IL-8” (Natura Cosméticos S.A., priority 2016, published 2018).

Columns and labels:
Type in all cases: cell-based
[1] = tested on: inflammatory cytokine IL-8; test: in vitro model of induced cell senescence: expression of IL-8; settings: UVA + agent
Excerpt: (§1) An in vitro model of induced early cell aging (cell senescence) was developed and used to evaluate whether certain cosmetic ingredients can protect or delay molecular mechanisms that lead to aging of skin cells or to loss of functional competence (loss of cellular vitality).

[2] = tested on: cell senescence-associated lysosomal b-galactosidase; test: in vitro model of induced early cell aging (cell senescence), UVA/UVB: senescence-associated lysosomal b-galactosidase (flow cytometry and cytochemical marking); settings: in the presence of agent
Excerpt: as §1

transcription factor p16 = test: in vitro model of induced cell senescence: expression of p16; settings: protection of the cells with agent
Excerpt: as §1

transcription factor p21 = test: in vitro model of induced cell senescence: expression of p21; settings: protection of the cells with agent
Excerpt: as §1

Row | Compound | expression of IL-8 [1] | appearance of b-galactosidase marking induced by UV [2] | induced expression of p16 (transcription factor p16) | induced expression of p21 (transcription factor p21)
1 | O=C(O)/C=C/c1ccc(O)c(O)c1 [caffeic acid] | reduced | reduced | reduces | –
2 | Cc1c(C)c2c(c(C)c1O)CCC(C)(C(=O)O)O2 (stereo not shown) [trolox] | reduced | reduced | reduces | reduces
